Molecular target: T1, HsaRARα LBD (Homo sapiens, UniProt P10276)
T1 construct: gene RARA; glutathione S-transferase fusion (pGEX-4T-1), E. coli BL21(DE3)
T1 sequence (P10276 183-417 limits assumed): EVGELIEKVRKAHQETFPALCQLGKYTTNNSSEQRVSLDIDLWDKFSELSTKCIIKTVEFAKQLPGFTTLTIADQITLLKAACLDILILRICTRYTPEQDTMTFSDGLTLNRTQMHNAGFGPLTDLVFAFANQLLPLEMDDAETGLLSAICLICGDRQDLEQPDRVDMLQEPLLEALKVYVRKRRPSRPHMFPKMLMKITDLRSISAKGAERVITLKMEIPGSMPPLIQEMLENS
Test: competitive radioligand binding, hydroxyapatite precipitation
Settings: 4 °C, labelled compound, positive control

Row | SMILES | competitive radioligand binding, hydroxyapatite precipitation (10 nM [3H]ATRA displaced by unlabelled ATRA) | competitive radioligand binding, hydroxyapatite precipitation (10 nM [3H]ATRA or [3H]9cisRA displaced by unlabelled 9cisRA)
1 | CC1=C(/C=C/C(C)=C/C=C/C(C)=C/C(=O)O)C(C)(C)CCC1 [ATRA] | Competition by ATRA and 9cisRA with [^3H]ATRA and [^3H]9cisRA for binding to the LBD | –
2 | CC1=C(/C=C/C(C)=C\C=C\C(C)=C\C(=O)O)C(C)(C)CCC1 [9cisRA] | – | Competition by ATRA and 9cisRA with [^3H]ATRA and [^3H]9cisRA for binding to the LBD

Source: article PMC6947571, “An Orthologue of the Retinoic Acid Receptor (RAR) Is Present in the Ecdysozoa Phylum Priapulida” (Genes, 2019)
